Experimental findings from patent publication US7094911B2, “Biphenyl and biphenyl-analogous compounds as integrin antagonists” (Bayer Aktiengesellschaft, priority 1998, dated 2006) are described below.

Each structure is given as a SMILES string.

With `O=C(O)CC(NS(=O)(=O)c1cccc(-c2cccc(Nc3c(NCc4ccccn4)c(=O)c3=O)c2)c1)c1ccccc1` (centres unmarked) [Example 13.8], the melting point was 149 °C (dec.).

Regarding `Cc1cc(C)c(S(=O)(=O)NC(Cc2cccc(-c3cccc(NC(=O)NCc4ccccn4)c3)c2)C(=O)O)c(C)c1` (centres unmarked) [Example 1.193], the melting point amounted to 118 °C.

Compound `COc1ccc(-c2ccc(NC(=O)NCCc3ccccn3)cc2)cc1S(=O)(=O)NC(CC(=O)O)c1ccccc1` (centres unmarked) [Example 4.64] came in with a melting point of 137 °C. Next, `CC1(C)[C@H]2CCC1(CS(=O)(=O)N[C@@H](Cc1ccc(-c3cccc(N/C(=C/[N+](=O)[O-])NCc4ccccn4)c3)cc1)C(=O)O)C(=O)C2` [Example 12.7]: 126 °C (dec.); `O=C(O)CC(NS(=O)(=O)c1cccc(-c2cccc(NC(=O)Nc3nc4ccccc4[nH]3)c2)c1)c1cccnc1` (centres unmarked) [Example 4.41]: 170 °C. Next, `O=C(O)C[C@@H](NS(=O)(=O)c1cccc(-c2cccc(NC(=O)NCc3cccnc3)c2)c1)c1ccccc1` [Example 4.92]: 126 °C; `Cc1cc(C)c(S(=O)(=O)N[C@@H](Cc2ccc(-c3cccc(N/C(=N/C#N)NCc4ccccn4)c3)cc2)C(=O)O)c(C)c1` [Example 10.9]: 174 °C (dec.).

Consider `Cc1cc(C)c(S(=O)(=O)N[C@@H](Cc2ccc(-c3cccc(Nc4c(NCc5ccccn5)c(=O)c4=O)c3)cc2)C(=O)O)c(C)c1` [Example 13.3], for which the melting point is 214 °C (dec.). Next, `COc1ccc(-c2cccc(NC(=O)Nc3nccs3)c2)cc1S(=O)(=O)NC(CC(=O)O)c1ccccc1` (centres unmarked) [Example 4.99]: above 240 °C; `CC1(C)[C@H]2CCC1(CS(=O)(=O)N[C@@H](Cc1ccc(-c3cccc(NC4=C(NC5CC5)C(=O)C4O)c3)cc1)C(=O)O)C(=O)C2` (some centres unmarked) [Example 13.5]: 152 °C. Regarding `O=C(O)[C@H](Cc1ccc(-c2cccc(CNc3ccccn3)c2)cc1)NS(=O)(=O)C1CC1` [Example 18.11], the melting point is above 240 °C. The figure for `COc1ccc(-c2cccc(NC(=O)NCc3cccnc3)c2)cc1S(=O)(=O)N[C@H](CC(=O)O)c1ccccc1` [Example 4.89] is 224 °C (dec.); for `CCCCNC(=O)Nc1cccc(-c2ccc(OC)c(S(=O)(=O)NC(CC(=O)O)c3ccccc3)c2)c1` (centres unmarked) [Example 4.63] it is 190 °C.

Consider `C[C@@H](NS(=O)(=O)c1cccc(-c2cccc(NC(=O)NCc3ccccn3)c2)c1)C(=O)O` [Example 4.82], for which the melting point worked out at 149 °C.

As for `Cc1cc(C)c(S(=O)(=O)N[C@@H](Cc2ccc(-c3cccc(NC(=O)c4ccc[nH]4)c3)cc2)C(=O)O)c(C)c1` [Example 19.2], the melting point is 140 °C (dec.). Next, `O=C(O)C[C@@H](NS(=O)(=O)c1cccc(-c2cccc(NC(=O)NCc3ccc(C(F)(F)F)cc3)c2)c1)c1ccccc1` [Example 4.95]: 186 °C. Next, `COc1ccc(-c2cccc(NC(=O)c3ccc[nH]3)c2)cc1S(=O)(=O)NC(CC(=O)O)c1ccccc1` (centres unmarked) [Example 19.3]: 234 °C; `C[C@H](NS(=O)(=O)c1cccc(-c2cccc(NC(=O)N=c3[nH]c4ccccc4[nH]3)c2)c1)C(=O)O` [Example 4.80]: 218 °C. Next, `O=C(O)CC(NS(=O)(=O)c1cccc(-c2cccc(NC(=O)NC3CC3)c2)c1)c1cccnc1` (centres unmarked) [Example 4.39]: 144 °C; `CCS(=O)(=O)N[C@@H](Cc1ccc(-c2cccc(CNc3ccccn3)c2)cc1)C(=O)O` [Example 18.7]: above 240 °C.

As to `Cc1cc(C)c(S(=O)(=O)N[C@@H](Cc2ccc(-c3cccc(NC(=O)Nc4nc5ccc(C)cc5o4)c3)cc2)C(=O)O)c(C)c1` [Example 1.196], the melting point worked out at 213 °C.

For `COc1ccc(-c2ccc(NC(=O)NC(C)C)cc2)cc1S(=O)(=O)NC(CC(=O)O)c1ccccc1` (centres unmarked) [Example 4.68], the melting point turned out to be 115 °C. `COc1ccc(-c2ccc(NC(=O)NCc3ccccc3)cc2)cc1S(=O)(=O)NC(CC(=O)O)c1ccccc1` (centres unmarked) [Example 4.70] gave a melting point of 150 °C. `Cc1cc(C)c(S(=O)(=O)N[C@@H](Cc2ccc(-c3cccc(NC(=O)N=c4[nH]c5ccccc5[nH]4)c3)cc2)C(=O)O)c(C)c1` [Example 1.210]: the melting point was determined as 207 °C. In turn, `Cc1cc(C)c(S(=O)(=O)N[C@@H](Cc2ccc(-c3cccc(N/C(=C/[N+](=O)[O-])NC4CC4)c3)cc2)C(=O)O)c(C)c1` [Example 12.1.5, (2S)-3-(3′-{[(E)-1-(cyclopropylamino)-2-nitroethenyl]amino}[1,1′-biphenyl]-4-yl)-2-[(mesitylsulfonyl)amino]-propanoic acid] gave a melting point of 149 °C. `CC1(C)C2CC[C@@]1(CS(=O)(=O)N[C@@H](Cc1ccc(-c3ccc(NC(=O)N=c4[nH]c5ccccc5[nH]4)cc3)cc1)C(=O)O)C(=O)C2` [Example 1.215] came in with a melting point of 222 °C.

With `Cc1cc(C)c(S(=O)(=O)N[C@@H](Cc2ccc(-c3cccc(N)c3)cc2)C(=O)O)c(C)c1` [Example 1.205], the melting point came out at 289 °C. Next, `CC1(C)C2CC[C@@]1(CS(=O)(=O)N[C@@H](Cc1ccc(-c3ccc(NC(=O)NCc4ccccn4)cc3)cc1)C(=O)O)C(=O)C2` [Example 1.213]: 202 °C.

`CCCNC(=O)Nc1cccc(-c2cccc(S(=O)(=O)N[C@H](C)C(=O)O)c2)c1` [Example 4.81] yielded a melting point of 126 °C.

Consider `COc1ccc(-c2cccc(NC(=O)N=c3[nH]cc[nH]3)c2)cc1S(=O)(=O)NC(CC(=O)O)c1ccccc1` (centres unmarked) [Example 4.86], for which the melting point amounted to 209 °C. The figure for `COc1ccc(-c2ccc(NC(=O)N=c3[nH]c4ccccc4[nH]3)cc2)cc1S(=O)(=O)NC(CC(=O)O)c1ccccc1` (centres unmarked) [Example 4.74] is 209 °C; for `C[C@@H](NS(=O)(=O)c1cccc(-c2cccc(NC(=O)N=c3[nH]c4ccccc4[nH]3)c2)c1)C(=O)O` [Example 4.83] it is 158 °C; for `COc1ccc(-c2cccc(NC(=O)NCc3ccc(F)cc3)c2)cc1S(=O)(=O)N[C@@H](CC(=O)O)c1ccccc1` [Example 4.97] it is 162 °C.

In turn, `COc1ccc(-c2cccc(NC(=O)Nc3nncs3)c2)cc1S(=O)(=O)NC(CC(=O)O)c1ccccc1` (centres unmarked) [Example 4.106] displayed a melting point above 240 °C. Next, `COc1ccc(-c2ccc(NC(=O)Nc3cccnc3)cc2)cc1S(=O)(=O)NC(CC(=O)O)c1ccccc1` (centres unmarked) [Example 4.75]: 188 °C; `O=C(O)CNS(=O)(=O)c1cccc(-c2cccc(Nc3c(NC4CC4)c(=O)c3=O)c2)c1` [Example 13.2]: 204 °C (dec.); `CC1(C)C2CC[C@@]1(CS(=O)(=O)N[C@@H](Cc1ccc(-c3cccc(Nc4ncccc4[N+](=O)[O-])c3)cc1)C(=O)O)C(=O)C2` [Example 20.3]: 207 °C. The figure for `Cc1cc(C)c(S(=O)(=O)N[C@@H](Cc2ccc(-c3cccc(CNc4nc5ccccc5[nH]4)c3)cc2)C(=O)O)c(C)c1` [Example 18.4] is above 240 °C; for `Cc1cc(C)c(S(=O)(=O)NC(Cc2cccc(-c3ccc(NC(=O)N=c4[nH]c5ccccc5[nH]4)cc3)c2)C(=O)O)c(C)c1` (centres unmarked) [Example 1.202] it is 193 °C; for `O=C(O)CNS(=O)(=O)c1cccc(-c2cccc(NC(=O)Nc3nc4ccccc4[nH]3)c2)c1` [Example 4.38] it is 172 °C.

Take `CC1(C)[C@H]2CCC1(CS(=O)(=O)N[C@@H](Cc1ccc(-c3cccc(N/C(=C/[N+](=O)[O-])NC4CCC4)c3)cc1)C(=O)O)C(=O)C2` [Example 12.9]: the melting point was 151 °C (dec.). Next, `CCCNC(=O)Nc1cccc(-c2cccc(S(=O)(=O)N(C)CC(=O)O)c2)c1` [Example 6.12]: 90 °C. In turn, `CCCNC(=O)Nc1ccc(-c2ccc(OC)c(S(=O)(=O)NC(CC(=O)O)c3ccccc3)c2)cc1` (centres unmarked) [Example 4.98] gave a melting point of 116 °C. Next, `O=C(O)CC(NS(=O)(=O)c1cccc(-c2cccc(Nc3nccs3)c2)c1)c1ccccc1` (centres unmarked) [Example 15.1.2, 3-phenyl-3-{[3′-(1,3-thiazol-2-ylamino)[1,1′-biphenyl]-3-yl]sulfonylamino}-propanoic acid]: 130 °C (dec.); `C[C@@H](NS(=O)(=O)c1cccc(-c2cccc(NC(=O)NCC(F)(F)C(F)(F)F)c2)c1)C(=O)O` [Example 4.93]: 112 °C; `CCCCNC(=O)Nc1cccc(-c2ccc(OC)c(S(=O)(=O)N[C@@H](CC(=O)O)c3ccccc3)c2)c1` [Example 4.96]: 156 °C.

For `COc1ccc(-c2ccc(NC(=O)NCc3ccncc3)cc2)cc1S(=O)(=O)NC(CC(=O)O)c1ccccc1` (centres unmarked) [Example 4.66], the melting point is 145 °C. Next, `CC1(C)C2CC[C@@]1(CS(=O)(=O)N[C@@H](Cc1ccc(-c3ccc(NC(=O)Nc4ccncc4)cc3)cc1)C(=O)O)C(=O)C2` [Example 1.214]: 207 °C. The figure for `O=C(O)C[C@@H](NS(=O)(=O)c1cccc(-c2cccc(NC(=O)N=c3[nH]c4ccccc4[nH]3)c2)c1)c1ccccc1` [Example 4.91] is 189 °C; for `Cc1cc(C)c(S(=O)(=O)N[C@@H](Cc2ccc(-c3cccc(NC(=O)NCC(F)(F)F)c3)cc2)C(=O)O)c(C)c1` [Example 1.206] it is 124 °C; for `O=C(O)CC(NS(=O)(=O)c1cccc(-c2cccc(Nc3c(NCC(F)(F)F)c(=O)c3=O)c2)c1)c1cccnc1` (centres unmarked) [Example 13.11] it is 219 °C (dec.).

On to `CS(=O)(=O)N[C@@H](Cc1ccc(-c2cccc(Nc3c(NC4CC4)c(=O)c3=O)c2)cc1)C(=O)O` [Example 13.9], for which the melting point was 210 °C (dec.). Next, `Cc1cc(C)c(S(=O)(=O)N[C@@H](Cc2ccc(-c3cccc(Nc4n[s+]([O-])nc4NC4CC4)c3)cc2)C(=O)O)c(C)c1` (stereo partly drawn) [Example 17.1.3, (2S)-2-[(Mesitylsulfonyl)amino]-3-(3′-{[4-(cyclopropylamino)-1-oxo-1H-1[lambda]4,2,5-thiadiazol-3-yl]amino}[1,1′-biphenyl]-4-yl)-propanoic acid]: 180 °C (dec.).

The melting point is the temperature, or range, at which the solid turns liquid.
